Laboratory results: ChEMBL document CHEMBL1255241, “Novel characteristics of community-acquired methicillin-resistant Staphylococcus aureus strains belonging to multilocus sequence type 59 in Taiwan” (2008)
Values after ≈ are worked out from the molar mass of the structure shown.

Columns and labels:
Assay type in all cases: functional
[1] = tested on: Staphylococcus aureus; assay: Antibacterial activity against group 6 PVL negative community-acquired methicillin-resistant Staphylococcus aureus ST 8 expressing SCCmec type IVx gene by agar dilution method
[2] = tested on: Staphylococcus aureus; assay: Antibacterial activity against group 1 PVL+ community-acquired methicillin-resistant Staphylococcus aureus ST 59 expressing SCCmec type VT gene by agar dilution method
[3] = tested on: Staphylococcus aureus; assay: Antibacterial activity against group 4-v2 PVL negative community-acquired methicillin-resistant Staphylococcus aureus ST 59 expressing SCCmec type IVx gene by agar dilution method
[4] = tested on: Staphylococcus aureus; assay: Antibacterial activity against group 4-v1 PVL negative community-acquired methicillin-resistant Staphylococcus aureus ST 59 expressing SCCmec type X gene by agar dilution method
[5] = tested on: Staphylococcus aureus; assay: Antibacterial activity against group 5 PVL negative community-acquired methicillin-resistant Staphylococcus aureus ST 5 expressing SCCmec type II gene by agar dilution method
[6] = tested on: Staphylococcus aureus; assay: Antibacterial activity against group 3 PVL negative community-acquired methicillin-resistant Staphylococcus aureus ST 239 expressing SCCmec type III gene by agar dilution method
[7] = tested on: Staphylococcus aureus; assay: Antibacterial activity against group 3-v1 PVL negative community-acquired methicillin-resistant Staphylococcus aureus ST 900 expressing SCCmec type III gene by agar dilution method
[8] = tested on: Staphylococcus aureus; assay: Antibacterial activity against group 4-v3 PVL negative community-acquired methicillin-resistant Staphylococcus aureus ST 59 expressing SCCmec type IVc gene by agar dilution method
[9] = tested on: Staphylococcus aureus; assay: Antibacterial activity against group 1-v4 PVL+ community-acquired methicillin-resistant Staphylococcus aureus ST 59 expressing SCCmec type VT gene by agar dilution method
[10] = tested on: Staphylococcus aureus; assay: Antibacterial activity against group 1-v2 PVL+ community-acquired methicillin-resistant Staphylococcus aureus ST 59 expressing SCCmec type X gene by agar dilution method
[11] = tested on: Staphylococcus aureus; assay: Antibacterial activity against group 2 PVL+ community-acquired methicillin-resistant Staphylococcus aureus ST 30 expressing SCCmec type IVc gene by agar dilution method
[12] = tested on: Staphylococcus aureus; assay: Antibacterial activity against group 4 PVL negative community-acquired methicillin-resistant Staphylococcus aureus ST 59 expressing SCCmec type IVx gene by agar dilution method
[13] = tested on: Staphylococcus aureus; assay: Antibacterial activity against group 1-v3 PVL+ community-acquired methicillin-resistant Staphylococcus aureus ST 59 expressing SCCmec type V gene by agar dilution method
[14] = tested on: Staphylococcus aureus; assay: Antibacterial activity against group 1-v1 PVL+ community-acquired methicillin-resistant Staphylococcus aureus ST 59 expressing SCCmec type V gene by agar dilution method

Cc1onc(-c2ccccc2)c1C(=O)N[C@@H]1C(=O)N2[C@@H]1SC(C)(C)[C@@H]2C(=O)O [OXACILLIN]
MIC [1]: 32 µg/mL (≈ 79.7 µM) | MIC [2]: 32 µg/mL (≈ 79.7 µM) | MIC [3]: 64 µg/mL (≈ 159 µM) | MIC [4]: 32 µg/mL (≈ 79.7 µM) | MIC [5]: ≥ 128 µg/mL | MIC [6]: ≥ 128 µg/mL | MIC [7]: ≥ 128 µg/mL | MIC [8]: 32 µg/mL (≈ 79.7 µM) | MIC [9]: 4 µg/mL (≈ 9.96 µM) | MIC [10]: 64 µg/mL (≈ 159 µM) | MIC [11]: 32 µg/mL (≈ 79.7 µM) | MIC [12]: ≥ 128 µg/mL | MIC [13]: 4 µg/mL (≈ 9.96 µM) | MIC [14]: 64 µg/mL (≈ 159 µM)
